The values below come from US9193719B2, “1,2,4-triazol-5-ones and analogs exhibiting anti-cancer and anti-proliferative activities” (Deciphera Pharmaceuticals, LLC, priority 2013, dated 2015).

Experiment [1] concerns osteoclast precursors. Kind of experiment: Osteoclast tartrate-resistant acid phosphatase assay. Format: cell-based. As to conditions: RANKL and M-CSF, 7-14 days, tartrate-resistant acid phosphatase activity.
Experiment [2] addresses T1, unphosphorylated PDGFRβ kinase (uPDGFRβ, Seq. ID No. 3) (Homo sapiens, UniProt P09619).
T1 construct: purchased DeCode
Kind of experiment: uPDGFRβ kinase enzymatic assay (pyruvate kinase/lactate dehydrogenase coupled). Format: biochemical. As to conditions: ATP 500 μM, rate 1.5 to 2.5 h. A digest of the protocol: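 Unphosphorylated PDGFRβ (15.7 nM) with 500 μM ATP and poly E4Y (2.5 mg/mL) in Tris pH 7.5, 0.2% octyl-glucoside, 1% DMSO; ADP coupled via PK/LDH to NADH oxidation at A340, read continuously 4 h at 30 °C. Rates from 1.5–2.5 h window versus no-compound control gave IC50.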

Experiment [3] addresses T2, unphosphorylated c-KIT kinase (uKIT, Seq. ID no. 2) (Homo sapiens, UniProt P10721).
T2 construct: uKit with N-terminal GST fusion used for screening
Kind of experiment: uKit kinase enzymatic assay (pyruvate kinase/lactate dehydrogenase coupled). Format: biochemical. As to conditions: ATP 2000 μM, rate 3 to 4 h. A digest of the protocol: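 Coupled pyruvate kinase/lactate dehydrogenase readout of ADP, following NADH oxidation at A340 continuously for 4 h at 30 °C. Mix: 12 nM unphosphorylated KIT, 1 mg/mL polyE4Y, 2000 μM ATP, 10 mM MgCl2, 90 mM Tris pH 7.5, 0.2% octyl-glucoside, 1% DMSO. IC50 from % inhibition of rates at 3–4 h.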

The test system of experiment [4] is M-NFS-60 cells. The experiment can be described thus: M-NFS-60 cell proliferation assay (resazurin). As to conditions: 67 h incubation. It is filed as cell-based. A digest of the protocol:
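Cells kept in medium containing 20 ng/mL mouse recombinant M-CSF. Fluorescence was read at ex 540/em 600 nm, and IC50 was fitted from percent inhibition across a range of inhibitor concentrations.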

T1 sequence (P09619 557-1106): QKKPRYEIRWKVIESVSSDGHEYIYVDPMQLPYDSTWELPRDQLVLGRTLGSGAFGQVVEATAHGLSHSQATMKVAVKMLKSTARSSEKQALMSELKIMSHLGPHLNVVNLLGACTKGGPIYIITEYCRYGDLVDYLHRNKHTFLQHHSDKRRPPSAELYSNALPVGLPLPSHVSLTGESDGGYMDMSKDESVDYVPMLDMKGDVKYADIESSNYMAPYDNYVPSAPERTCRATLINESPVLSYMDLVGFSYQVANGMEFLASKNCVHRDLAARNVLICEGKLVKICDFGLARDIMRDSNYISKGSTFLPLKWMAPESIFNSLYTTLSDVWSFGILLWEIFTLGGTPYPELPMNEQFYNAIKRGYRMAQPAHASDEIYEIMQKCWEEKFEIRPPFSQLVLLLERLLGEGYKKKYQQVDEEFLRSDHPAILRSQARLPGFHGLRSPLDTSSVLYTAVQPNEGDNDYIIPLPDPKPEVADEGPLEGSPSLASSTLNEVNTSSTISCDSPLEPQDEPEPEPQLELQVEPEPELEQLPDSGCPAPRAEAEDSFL
T2 sequence (P10721 with tags, fused parts or gaps): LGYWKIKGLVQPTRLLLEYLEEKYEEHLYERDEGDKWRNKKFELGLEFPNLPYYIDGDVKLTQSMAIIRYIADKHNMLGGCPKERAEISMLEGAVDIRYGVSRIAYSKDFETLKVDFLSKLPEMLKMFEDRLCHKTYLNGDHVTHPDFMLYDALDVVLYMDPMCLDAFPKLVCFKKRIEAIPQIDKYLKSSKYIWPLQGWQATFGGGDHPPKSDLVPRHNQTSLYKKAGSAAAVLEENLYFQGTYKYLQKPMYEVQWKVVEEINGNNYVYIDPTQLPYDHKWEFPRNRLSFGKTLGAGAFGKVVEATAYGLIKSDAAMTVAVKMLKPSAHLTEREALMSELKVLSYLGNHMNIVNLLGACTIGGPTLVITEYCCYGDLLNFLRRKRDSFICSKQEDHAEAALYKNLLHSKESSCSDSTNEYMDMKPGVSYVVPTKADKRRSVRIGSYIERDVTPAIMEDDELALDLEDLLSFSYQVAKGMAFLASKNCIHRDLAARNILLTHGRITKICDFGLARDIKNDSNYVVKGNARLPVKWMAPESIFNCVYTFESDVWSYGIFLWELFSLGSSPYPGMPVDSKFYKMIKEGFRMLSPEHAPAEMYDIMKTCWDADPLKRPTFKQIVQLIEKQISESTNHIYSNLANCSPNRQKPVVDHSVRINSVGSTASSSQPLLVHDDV

For `Cc1nc(-n2nc(Cc3ccc(F)cc3)[nH]c2=O)ccc1Oc1ccnc(-c2cnn(C)c2)c1` [Example 1, 3-(4-fluorobenzyl)-1-(6-methyl-5-((2-(1-methyl-1H-pyrazol-4-yl)pyridin-4-yl)oxy)pyridin-2-yl)-1H-1,2,4-triazol-5(4H)-one], the IC50 in experiment [1] fell in the range of 10 to 100 nM; in experiment [2], 100 to 1000 nM; in experiment [3], 100 to 1000 nM; in experiment [4] it was 10 to 100 nM.

For `Cc1nc(-n2nc(Cc3ccccc3)[nH]c2=O)ccc1Oc1ccnc(-c2cnn(C)c2)c1` [Example 2, 3-benzyl-1-(6-methyl-5-((2-(1-methyl-1H-pyrazol-4-yl)pyridin-4-yl)oxy)pyridin-2-yl)-1H-1,2,4-triazol-5(4H)-one], the IC50 in experiment [1] was 10 to 100 nM; in experiment [2], 100 to 1000 nM; in experiment [3], 100 to 1000 nM; in experiment [4], 10 to 100 nM.

As to `Cn1cc(-c2cc(Oc3ccc(-n4nc(Cc5ccc(F)cc5)[nH]c4=O)nc3)ccn2)cn1` [Example 3, 3-(4-fluorobenzyl)-1-(5-((2-(1-methyl-1H-pyrazol-4-yl)pyridin-4-yl)oxy)pyridin-2-yl)-1H-1,2,4-triazol-5(4H)-one], the IC50 in experiment [1], in experiment [2], in experiment [3] and in experiment [4] was 10 to 100 nM in each case.

For `Cn1cc(-c2cc(Oc3ccc(-n4nc(C(C)(C)C)[nH]c4=O)nc3)ccn2)cn1` [Example 4, 3-(tert-butyl)-1-(5-((2-(1-methyl-1H-pyrazol-4-yl)pyridin-4-yl)oxy)pyridin-2-yl)-1H-1,2,4-triazol-5(4H)-one], the IC50 in experiment [1] was 10 to 100 nM; in experiment [2], over 1000 nM; in experiment [3] it was 10 to 100 nM; in experiment [4], 10 to 100 nM.

As to `Cc1nc(-n2nc(C(C)C)[nH]c2=O)ccc1Oc1ccnc(-c2cnn(C)c2)c1` [Example 5, 3-isopropyl-1-(6-methyl-5-((2-(1-methyl-1H-pyrazol-4-yl)pyridin-4-yl)oxy)pyridin-2-yl)-1H-1,2,4-triazol-5(4H)-one], the IC50 in experiment [1] is 10 to 100 nM; in experiment [2] it was over 1000 nM; in experiment [3] it was 100 to 1000 nM; in experiment [4], 10 to 100 nM.

`Cc1nc(-n2nc(C3CCCCC3)[nH]c2=O)ccc1Oc1ccnc(-c2cnn(C)c2)c1` [Example 6, 3-cyclohexyl-1-(6-methyl-5-((2-(1-methyl-1H-pyrazol-4-yl)pyridin-4-yl)oxy)pyridin-2-yl)-1H-1,2,4-triazol-5(4H)-one]: the IC50 in experiment [1] is 10 to 100 nM; in experiment [2] it was 100 to 1000 nM; in experiment [3] it was 10 to 100 nM; in experiment [4] it was at most 10 nM.

Take `Cc1nc(-n2nc(C(C)(C)C)[nH]c2=O)ccc1Oc1ccnc(-c2cnn(C)c2)c1` [Example 7, 3-(tert-butyl)-1-(6-methyl-5-((2-(1-methyl-1H-pyrazol-4-yl)pyridin-4-yl)oxy)pyridin-2-yl)-1H-1,2,4-triazol-5(4H)-one]: the IC50 in experiment [1] is 10 to 100 nM; in experiment [2] it was over 1000 nM; in experiment [3] it was 100 to 1000 nM; in experiment [4] it was 10 to 100 nM.

In the case of `Cc1cc(-c2cc(Oc3ccc(-n4nc(C(C)(C)C)[nH]c4=O)nc3C)ccn2)ccn1` [Example 9, 3-(tert-butyl)-1-(6-methyl-5-((2′-methyl-[2,4′-bipyridin]-4-yl)oxy)pyridin-2-yl)-1H-1,2,4-triazol-5(4H)-one], the IC50 in experiment [1] is 10 to 100 nM; in experiment [2], over 1000 nM; in experiment [3], 100 to 1000 nM; in experiment [4], 10 to 100 nM.

Turning to `Cc1ccc(-c2cc(Oc3ccc(-n4nc(C(C)(C)C)[nH]c4=O)nc3C)ccn2)cn1` [Example 10, 3-(tert-butyl)-1-(6-methyl-5-((6′-methyl-[2,3′-bipyridin]-4-yl)oxy)pyridin-2-yl)-1H-1,2,4-triazol-5(4H)-one], the IC50 in experiment [1] was 10 to 100 nM; in experiment [2], over 1000 nM; in experiment [3], over 1000 nM; in experiment [4], 10 to 100 nM.

With `Cc1nc(-n2nc(C(C)(C)C)n(C)c2=O)ccc1Oc1ccnc(-c2cnn(C)c2)c1` [Example 13, 3-(tert-butyl)-4-methyl-1-(6-methyl-5-((2-(1-methyl-1H-pyrazol-4-yl)pyridin-4-yl)oxy)pyridin-2-yl)-1H-1,2,4-triazol-5(4H)-one], the half-inhibitory concentration (IC50) in experiment [1] was 100 to 1000 nM; in experiment [2] it was over 1000 nM; in experiment [3], 100 to 1000 nM; in experiment [4], 100 to 1000 nM.

For the compound `Cc1nc(-n2nc(C(C)(C)C)[nH]c2=O)ccc1Oc1ccnc(-c2ccc(C3CCN(C)CC3)cc2)c1` [Example 14, 3-(tert-butyl)-1-(6-methyl-5-((2-(4-(1-methylpiperidin-4-yl)phenyl)pyridin-4-yl)oxy)pyridin-2-yl)-1H-1,2,4-triazol-5(4H)-one], the IC50 is at most 10 nM in experiment [1], over 1000 nM in experiment [2], 10 to 100 nM in experiment [3] and 10 to 100 nM in experiment [4].

Consider `COC(C)(C)c1nn(-c2ccc(Oc3ccnc(-c4cnn(C)c4)c3)c(C)n2)c(=O)[nH]1` [Example 16, 3-(2-methoxypropan-2-yl)-1-(6-methyl-5-((2-(1-methyl-1H-pyrazol-4-yl)pyridin-4-yl)oxy)pyridin-2-yl)-1H-1,2,4-triazol-5(4H)-one], for which the IC50 in experiment [1] is 10 to 100 nM; in experiment [2], over 1000 nM; in experiment [3], over 1000 nM; in experiment [4], 100 to 1000 nM.

For the compound `Cc1nc(-n2nc(C3CCOCC3)[nH]c2=O)ccc1Oc1ccnc(-c2cnn(C)c2)c1` [Example 20, 1-(6-methyl-5-((2-(1-methyl-1H-pyrazol-4-yl)pyridin-4-yl)oxy)pyridin-2-yl)-3-(tetrahydro-2H-pyran-4-yl)-1H-1,2,4-triazol-5(4H)-one], the IC50 is 100 to 1000 nM in experiment [1], over 1000 nM in experiment [2], 100 to 1000 nM in experiment [3] and 100 to 1000 nM in experiment [4].

In the case of `Cc1nc(-n2nc(CC(C)C)[nH]c2=O)ccc1Oc1ccnc(-c2cnn(C)c2)c1` [Example 22, 3-isobutyl-1-(6-methyl-5-((2-(1-methyl-1H-pyrazol-4-yl)pyridin-4-yl)oxy)pyridin-2-yl)-1H-1,2,4-triazol-5(4H)-one], the IC50 in experiment [1] is 10 to 100 nM; in experiment [2], over 1000 nM; in experiment [3], 10 to 100 nM; in experiment [4] it was at most 10 nM.

With `CCC(C)(C)c1nn(-c2ccc(Oc3ccnc(-c4cnn(C)c4)c3)c(C)n2)c(=O)[nH]1` [Example 25, 1-(6-methyl-5-((2-(1-methyl-1H-pyrazol-4-yl)pyridin-4-yl)oxy)pyridin-2-yl)-3-(tert-pentyl)-1H-1,2,4-triazol-5(4H)-one], the IC50 in experiment [1] was 10 to 100 nM; in experiment [2], over 1000 nM; in experiment [3], 10 to 100 nM; in experiment [4], 10 to 100 nM.

For `Cc1nc(-n2nc(C3(C)CC3)[nH]c2=O)ccc1Oc1ccnc(-c2cnn(C)c2)c1` [Example 27, 1-(6-methyl-5-((2-(1-methyl-1H-pyrazol-4-yl)pyridin-4-yl)oxy)pyridin-2-yl)-3-(1-methylcyclopropyl)-1H-1,2,4-triazol-5(4H)-one], the IC50 is 10 to 100 nM in experiment [1], over 1000 nM in experiment [2], 100 to 1000 nM in experiment [3] and 10 to 100 nM in experiment [4].

With `Cc1nc(-n2nc(C(C)(C)C)[nH]c2=O)ccc1Oc1ccnc(NC(=O)N(C)C)c1` [Example 30, 3-(4-((6-(3-(tert-butyl)-5-oxo-4,5-dihydro-1H-1,2,4-triazol-1-yl)-2-methylpyridin-3-yl)oxy)pyridin-2-yl)-1,1-dimethylurea], the IC50 in experiment [1] was 10 to 100 nM; in experiment [2], over 1000 nM; in experiment [3] it was over 1000 nM; in experiment [4] it was over 1000 nM.

`Cc1cc(-n2nc(C(C)(C)C)[nH]c2=O)ncc1Oc1ccnc(-c2cnn(C)c2)c1` [Example 31, 3-(tert-butyl)-1-(4-methyl-5-((2-(1-methyl-1H-pyrazol-4-yl)pyridin-4-yl)oxy)pyridin-2-yl)-1H-1,2,4-triazol-5(4H)-one]: the 50% inhibitory concentration (IC50) in experiment [1] fell in the range of 10 to 100 nM; in experiment [2], 100 to 1000 nM; in experiment [3] it was 10 to 100 nM; in experiment [4], 10 to 100 nM.

For the compound `Cc1cc(-n2nc(C(C)(C)C)[nH]c2=O)nc(C)c1Oc1ccnc(-c2cnn(C)c2)c1` [Example 33, 3-(tert-butyl)-1-(4,6-dimethyl-5-((2-(1-methyl-1H-pyrazol-4-yl)pyridin-4-yl)oxy)pyridin-2-yl)-1H-1,2,4-triazol-5(4H)-one], the IC50 in experiment [1], in experiment [2], in experiment [3] and in experiment [4] was 100 to 1000 nM in each case.

Regarding `Cc1nc(-n2nc(CC(C)(C)C)[nH]c2=O)ccc1Oc1ccnc(-c2cnn(C)c2)c1` [Example 36, 1-(6-methyl-5-((2-(1-methyl-1H-pyrazol-4-yl)pyridin-4-yl)oxy)pyridin-2-yl)-3-neopentyl-1H-1,2,4-triazol-5(4H)-one], the IC50 in experiment [1] lay within 10 to 100 nM; in experiment [2], 100 to 1000 nM; in experiment [3], 10 to 100 nM; in experiment [4], 10 to 100 nM.

Turning to `Cc1nc(-n2nc(C3CCC3)[nH]c2=O)ccc1Oc1ccnc(-c2cnn(C)c2)c1` [Example 37, 3-cyclobutyl-1-(6-methyl-5-((2-(1-methyl-1H-pyrazol-4-yl)pyridin-4-yl)oxy)pyridin-2-yl)-1H-1,2,4-triazol-5(4H)-one], the IC50 in experiment [1] was at most 10 nM; in experiment [2], 100 to 1000 nM; in experiment [3], 100 to 1000 nM; in experiment [4], 10 to 100 nM.

In general, IC50 refers to the concentration needed to halve the response being measured.
